# From patent US20100028406A1, “TOPICAL DRUG DELIVERY BY IONTOPHORESIS” (UNIVERSITE DE GENEVE, priority 2005, published 2010)
# Read-outs that look alike come from different tables or passages of the source.
# Key:
# [1] = cited from earlier work
# [2] = guinea pig skin, 5% w/w (220 mM) ACV ointment, passive; cited from earlier work
# [3] = pKa and ionization state of ACV and VCV; format: physicochemical; details: for ionization state in the donor phase: unbuffered formulations, ACV pH 6.3, VCV pH 5.7
# [4] = pH 7.4, 25°; cited from earlier work
# [5] = Cutaneous conversion of VCV to ACV in contact with skin (SC and dermis); format: in vitro ADME, porcine
# Experimental: (§1) The aqueous stability of VCV in the donor formulations was investigated by periodic sampling of solutions (2 and 10 mM in water with 15 mM acetaminophen) over a period of 44 hours. In addition, the impact of an electrical current (0.34 mA) on this stability was examined over the same period. The chemical hydrolysis of VCV was also investigated in the presence of PBS pH 7.4. The cutaneous conversion of VCV to ACV via hydrolytic cleavage of the ester bond was verified as follows. Cells were assembled as for an iontophoresis experiment. A 100 μM solution of VCV in PBS pH 7.4 was placed in all the cell compartments and left in contact with the skin (SC and dermis) for 4 hours. The compartments were assayed for ACV and VCV immediately afterwards.
# [6] = human skin, 5% w/w (220 mM) ACV ointment, passive; cited from earlier work
# [7] = cited from earlier work; remark: listed apart in the source
# [8] = calculated (Denny, 2003); cited from earlier work
# [9] = Iontophoresis across porcine skin in vitro, 3-compartment cells, acetaminophen as electroosmosis marker
# Experimental: Porcine ear skin, which is a well-accepted model for human skin (Dick and Scott, 1992; Sekkat et al., 2002), was used in these studies. Porcine ears were obtained from a local abattoir (Société d'Exploitation d'Abbatage, Annecy, France) a few hours after the sacrifice of the animals. The excised skin was then dermatomed (˜750 μm) on the same day and stored at −20° C. for a maximum of two months.
# Iontophoresis was performed using vertical 3-compartment cells (FIG. 2). The skin was placed between two half-cells: the upper half, in contact with the SC, comprised two electrode/donor compartments, while the lower receiver compartment was in contact with the dermis. A flow-through system circulated phosphate-buffered normal saline (PBS: 16.8 mM Na2HPO4, 1.4 mM KH2PO4 and 136.9 mM NaCl; pH 7.4) through the receiver chamber (volume 4.7 mL) at a rate of 3 mL/h. Ag/AgCl electrodes were used throughout the study. The skin was allowed to equilibrate for one hour prior to the iontophoresis experiment. In order to reduce competition from Na^+ ions present in the donor, and thus to increase the permeation of VCV, most experiments were performed using a salt bridge assembly. This strategy consists of physically separating the anodal chamber (Ag electrode immersed in PBS pH 7.4) from the donor compartment (drug solution in contact with the SC) and employing a salt bridge (prepared by filling a 12 cm tubing with a warm aqueous solution of 3% agarose and 0.1 M NaCl and then allowed to cool) to electrically connect the two chambers. […] For control experiments without the salt bridge, the anodal compartment contained 1 mL of 10 mM VCV.HCl in PBS pH 7.4. The cathodal compartment contained PBS pH 7.4 in all the experiments. A constant current of 0.34 mA was applied for 7 hours (equivalent to a current density of 0.5 mA/cm^2).
# Acetaminophen (ACE, 15 mM) was included in the donor solution as a marker for electroosmotic flow. Being a small, polar and neutral molecule, it is transported mainly by convective solvent flow during iontophoresis. Therefore, its flux can be used to determine the contribution of electroosmosis to the total iontophoretic flux,
# where JEO represents the contribution of electroosmosis (EO) to delivery, vA→C is the convective solvent flow from the anode to cathode, and CD is the donor concentration of the drug.
# The experiments were performed in sextuplicate, except for passive delivery (n=3), using the skin of as many different animals as possible. Samples were collected hourly and analyzed by high pressure liquid chromatography (HPLC). The HPLC system consisted of a 600 E Controller pump, an Autosampler Injector 717-plus, an In Line Degasser, and a UV 2487 dual λ Detector (Waters, Saint-Quentin Yvelines, France). The separation was performed on a Nucleosil® 100-5 C18 Nautilus column (L: 125 mm; ID: 4.6 mm; Macherey-Nagel, Hoerdt, France) with a 99:1 mixture of 0.1% trifluoroacetic acid (TFA) in water (pH 2.5): MeCN. The flow rate was 1 mL/min, the temperature was adjusted to 30° C., and 50 μL of sample were injected.
# The iontophoretic flux (JTOT) of a charged species is considered to be the sum of two separate transport processes—electromigration (JEM) and electroosmosis (JEO), assuming negligible passive skin permeability (Sage Jr., 1995):
# JTOT,VCV=JEM,VCV+JEO,VCV (equation 2)
# Briefly, electromigration occurs as a result of increased molecular transport in the presence of an applied electric field, whereas electroosmosis refers to transport mediated by the bulk solvent flow across the skin (in the anode-to-cathode direction) due to the skin's permselectivity for cations under physiological conditions.
# [10] = topical 220 mM ACV formulation, rabbits in vivo; cited from earlier work
# [11] = Aqueous stability of VCV in donor formulations and in PBS pH 7.4; format: physicochemical
# Experimental: as §1
# [12] = iontophoresis, rabbit skin; cited from earlier work
structure (smiles),measurement,setting,value
"Nc1nc2c(ncn2COCCO)c(=O)[nH]1 [ACV, acyclovir]",donor concentration-normalized flux,"[1]; human skin, physiological pH, iontophoresis",0.0027 cm/h
same,epidermal concentrations,[1]; iontophoretic administration across human skin,~80 µg/mL
same,in vitro flux,[2],0.21 nmol/cm^2/h
same,ionization state in the donor phase,[3],effectively uncharged
same,aqueous solubility,[4],1300 µg/mL
same,"stability in contact with the skin, donor and receptor chambers","[5]; 100 μM, 4 hours, SC and dermis",stable
same,in vitro flux,[6],0.24 nmol/cm^2/h
same,ionized fraction,[7]; pH 3.0,20%
same,ionized fraction,[7]; pH 7.4,2%
same,calculated log P and log D values,[8],−1.76
same,donor concentration-normalized flux,"[9]; pig, 7 h, 2 mM, pH 6.3",0.0024 cm/h
same,mechanism of iontophoretic transport across the skin,"[9]; unbuffered formulations, ACV pH 6.3, VCV pH 5.7",entirely by EO
same,dermal concentrations (microdialysis),[10],below the limit of detection
"CC(C)[C@H](N)C(=O)OCCOCn1cnc2c(=O)[nH]c(N)nc21 [VCV, valaciclovir]",prodrug converted to ACV,"[11]; PBS pH 7.4, over 7 hrs",~12%
same,VCV converted into ACV,"[11]; unbuffered aqueous solutions (2 and 10 mM) with acetaminophen, 44 hours, absence of a current",Less than 1%
same,extent of degradation of VCV,"[11]; unbuffered aqueous solutions, presence of a current (0.34 mA), over 7 hours",~1%
same,protonated fraction,[3]; physiological pH,~50%
same,ionization state in the donor phase,[3],fully protonated
same,enzymatic conversion after contact with the SC,"[5]; 100 μM in PBS pH 7.4, 4 hours",not observed
same,hydrolysis after contact with the dermis,"[5]; 100 μM in PBS pH 7.4, 4 hours, receiver (dermal) compartment",completely hydrolyzed to ACV
same,calculated log P and log D values,[8],−0.78
same,mechanism of iontophoretic transport across the skin,[9],almost entirely to electromigration (EM)
same,average flux Jt=0-3 h,"[9]; pig, 2 mM",385±158 nmol/cm^2/h
same,average flux Jt=0-3 h,"[9]; pig, 10 mM",479±258 nmol/cm^2/h
same,flux Jt=0-7 h,"[9]; pig, 10 mM",510±219 nmol/cm^2/h
same,amount reaching the receptor as fraction of the applied dose,"[9]; pig, 4 h, 2 mM",50%
same,EM contribution to the total flux,"[9]; pig, 7 h, 10 mM, pH 7.4",73%
same,transport number,"[9]; pig, 7 h, pH 7.4",~0.03
CC12CCC3C(CC=C4CC(OC(=O)CN)CCC43C)C1CCC2=O (centres unmarked) [glycyl ester of DHEA],increase in permeation compared to the parent DHEA,[12],3 fold
